From patent US20050277624A1, “Use of corticosteroids alone or in conjunction with nutritional therapy to reduce stress in animals” (priority 2004, published 2005)

Legend:
[1] = Weight loss of calves during 8 h transport (Example 2); assay type: in vivo, crossbred calves (cattle); conditions: calves ~800 lb, dexamethasone i.m. 0.61 mg per 50 lb, NT 1 kg/animal 24 h prior
Source text: The study in Example 1 was repeated with the addition of a nutritional supplement treatment group. The calves were raised at the Agriculture and Agri-Food Canada Lacombe Research Centre (Lacombe, Alberta, Canada) in accordance with standard operating procedures representative of the cattle industry. The breed, sex and weight of the calves were similar to those used in Example 1. Crossbred calves weighing approximately 800 lb (363 kg) on average were used.
Twenty-four hours prior to transport, the calves were assigned to the nutritional supplement groups and were offered 1 kg/animal of nutritional supplement or a “receiver calf” preparation (Supplement 1(d) as described in U.S. Pat. Nos. 5,505,968 and 5,728,675 to Schaefer et al. with differences being the selection of flavoring, form of an extruded pellet, and carrier being alfalfa) along with their regular feed ration (cereal grain silage). All calves in all treatments were kept on normal feed and water rations prior to transport.
Weights of all animals were recorded pre- and post-transport and metabolic activity was assessed by infrared thermographic analyses of the eye region. […] The animals were then loaded onto a commercial transport carrier and transported for 8 h prior to being offloaded, re-weighed, re-scanned with infrared and re-sampled for cortisol. […]

[2] = test system: calves; test: Behavioural scans (lying and eating frequency) for three days following transport (Example 3); assay type: in vivo; conditions: three day average following transport
Source text: Corticosteroid treatment in conjunction with a nutritional supplement appears to enhance recovery from transport stress. The behavioral responses of animals were monitored following transport. Calves were allocated among five treatment groups as follows:
For all of the above groups, ten behavioural scans lasting one minute each were completed each day (pm) for three days following transport, thereby accumulating a total of 2,280 animal observations. Frequency measures of animals lying and eating were collected. It is well known to those skilled in the art that when animals are fatigued or morbid, they tend to lie down (Kilbour et al., 1984; Agri-Food Research Council Canadian Food Inspection Agency, 2001).

[3] = Weight loss of calves during 10 h transport (Example 1); assay type: in vivo, crossbred calves (cattle); conditions: calves ~600 lb, dexamethasone i.m. 2 mg per 50 lb body weight
Source text: Forty head of crossbred calves, both steers and heifers, and weighing approximately 600 lb (272 kg) on average were used. The calves were raised at the Agriculture and Agri-Food Canada Lacombe Research Centre (Lacombe, Alberta, Canada) in accordance with standard operating procedures representative of the cattle industry. The calves were randomly divided into two treatment groups designated as control (n=20) and dexamethasone-treated (n=20) and kept on standard feed (cereal grain silage) and water rations prior to transport.
Weights of all animals were recorded pre- and post-transport, metabolic activity was assessed by infrared thermographic analyses (IRT) of the eye region, and a salivary swab collection made for cortisol measurement.
The animals were subsequently loaded onto a commercial transport and transported for 10 h prior to being off loaded at the Agriculture and Agri-Food Canada Kamloops Research Centre (Kamloops, British Columbia, Canada). On arrival, the calves were again weighed, infrared images captured and a salivary swab collected. The animals were held overnight in pens with ad libitum access to water and cereal grain silage, and were again monitored for weight, thermal changes and salivary cortisol the following morning.

Q: Which “weight loss during transport” value ([1]; control lost 21.5 kg) does the source give for C[C@@H]1C[C@H]2[C@@H]3CCC4=CC(=O)C=C[C@]4(C)[C@@]3(F)[C@@H](O)C[C@]2(C)[C@@]1(O)C(=O)CO [dexamethasone] here?
A: Its value is 17.6 kg.

Q: And the “weight loss during transport” value ([1]; control lost 47.36 lb, P<0.05)?
A: Its value is 38.87 lb.

Q: What about the “Eating Frequency” value ([2]; control away 20%, control home 78%) of the same compound?
A: Its value is 24%.

Q: What about the “Lying Frequency” value ([2]; control away 97%, control home 23%) of the same compound?
A: The value was 0%.

Q: What about the “weight loss during transport” value ([3]; control lost 5%) of the same compound?
A: The value was 3.2 % body weight.

Q: And the “weight loss during transport” value ([3]; control lost 13.8 kg)?
A: Its value is 8.7 kg.

Q: What about the “weight loss during transport” value ([3]; control lost 30.5 lb, P<0.05) of the same compound?
A: The value was 19.2 lb.
